Measurements: ChEMBL document CHEMBL4507319 (2021)

Tests used:
[1] = molecular target: Serine/threonine-protein kinase Chk2 (Homo sapiens) (UniProt O96017); test: CHK2(h) Eurofins kinase panel; settings: Compound concentration 1.0 uM
[2] = molecular target: Death-associated protein kinase 1 (Homo sapiens) (UniProt P53355); test: DAPK1(h) Eurofins kinase panel; settings: Compound concentration 1.0 uM
[3] = molecular target: T1, Ephrin type-A receptor 8 (Homo sapiens) (UniProt P29322); test: EphA8(h) Eurofins kinase panel; settings: Compound concentration 1.0 uM
T1 sequence (whole entry): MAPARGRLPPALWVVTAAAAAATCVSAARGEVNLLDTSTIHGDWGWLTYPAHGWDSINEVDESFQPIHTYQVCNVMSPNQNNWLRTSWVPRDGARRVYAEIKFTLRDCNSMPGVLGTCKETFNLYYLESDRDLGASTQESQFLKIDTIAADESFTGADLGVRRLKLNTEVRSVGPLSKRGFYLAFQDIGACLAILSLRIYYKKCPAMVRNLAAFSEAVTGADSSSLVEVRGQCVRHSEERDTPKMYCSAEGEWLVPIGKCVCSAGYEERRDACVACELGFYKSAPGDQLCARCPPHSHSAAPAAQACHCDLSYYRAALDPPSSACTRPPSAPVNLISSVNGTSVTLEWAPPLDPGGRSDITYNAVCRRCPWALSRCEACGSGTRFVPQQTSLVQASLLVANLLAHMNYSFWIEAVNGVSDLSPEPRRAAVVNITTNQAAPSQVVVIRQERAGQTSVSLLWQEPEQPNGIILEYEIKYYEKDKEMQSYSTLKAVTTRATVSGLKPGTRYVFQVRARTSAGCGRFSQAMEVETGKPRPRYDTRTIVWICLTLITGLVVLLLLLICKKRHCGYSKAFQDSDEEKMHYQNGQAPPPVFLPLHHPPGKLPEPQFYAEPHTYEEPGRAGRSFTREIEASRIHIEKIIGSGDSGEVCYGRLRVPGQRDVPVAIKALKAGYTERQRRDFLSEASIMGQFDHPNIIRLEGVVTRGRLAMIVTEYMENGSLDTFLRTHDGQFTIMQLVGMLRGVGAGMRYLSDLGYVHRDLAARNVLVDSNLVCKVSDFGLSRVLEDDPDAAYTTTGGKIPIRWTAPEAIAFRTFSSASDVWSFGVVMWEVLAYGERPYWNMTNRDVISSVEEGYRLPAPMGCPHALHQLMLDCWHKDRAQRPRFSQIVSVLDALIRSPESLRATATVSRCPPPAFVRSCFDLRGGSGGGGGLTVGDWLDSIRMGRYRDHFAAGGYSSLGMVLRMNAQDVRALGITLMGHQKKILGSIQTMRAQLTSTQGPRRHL

[4] = molecular target: T2, Beta-adrenergic receptor kinase 1 (Homo sapiens) (UniProt P25098); test: GRK2(h) Eurofins kinase panel; settings: Compound concentration 1.0 uM
T2 sequence (whole entry): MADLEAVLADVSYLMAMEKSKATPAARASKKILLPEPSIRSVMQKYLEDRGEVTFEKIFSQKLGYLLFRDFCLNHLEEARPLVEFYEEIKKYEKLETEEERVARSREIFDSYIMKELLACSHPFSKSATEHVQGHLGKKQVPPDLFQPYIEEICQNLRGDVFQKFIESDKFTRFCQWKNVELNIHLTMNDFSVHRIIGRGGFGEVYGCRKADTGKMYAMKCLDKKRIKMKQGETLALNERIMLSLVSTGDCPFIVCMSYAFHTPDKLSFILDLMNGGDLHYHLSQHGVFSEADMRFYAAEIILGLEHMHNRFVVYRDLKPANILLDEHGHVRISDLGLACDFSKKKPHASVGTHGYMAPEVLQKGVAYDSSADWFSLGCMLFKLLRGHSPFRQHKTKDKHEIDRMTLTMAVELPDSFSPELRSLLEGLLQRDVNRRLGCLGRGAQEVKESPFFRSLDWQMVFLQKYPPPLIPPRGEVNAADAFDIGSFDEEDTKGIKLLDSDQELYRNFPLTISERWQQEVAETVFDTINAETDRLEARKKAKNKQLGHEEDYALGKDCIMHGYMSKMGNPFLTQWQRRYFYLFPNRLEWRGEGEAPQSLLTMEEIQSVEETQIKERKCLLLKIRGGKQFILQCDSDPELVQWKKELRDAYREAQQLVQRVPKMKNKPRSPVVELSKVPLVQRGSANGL

[5] = molecular target: T3, Inhibitor of nuclear factor kappa-B kinase subunit alpha (Homo sapiens) (UniProt O15111); test: IKKalpha(h) Eurofins kinase panel; settings: Compound concentration 1.0 uM
T3 sequence (whole entry): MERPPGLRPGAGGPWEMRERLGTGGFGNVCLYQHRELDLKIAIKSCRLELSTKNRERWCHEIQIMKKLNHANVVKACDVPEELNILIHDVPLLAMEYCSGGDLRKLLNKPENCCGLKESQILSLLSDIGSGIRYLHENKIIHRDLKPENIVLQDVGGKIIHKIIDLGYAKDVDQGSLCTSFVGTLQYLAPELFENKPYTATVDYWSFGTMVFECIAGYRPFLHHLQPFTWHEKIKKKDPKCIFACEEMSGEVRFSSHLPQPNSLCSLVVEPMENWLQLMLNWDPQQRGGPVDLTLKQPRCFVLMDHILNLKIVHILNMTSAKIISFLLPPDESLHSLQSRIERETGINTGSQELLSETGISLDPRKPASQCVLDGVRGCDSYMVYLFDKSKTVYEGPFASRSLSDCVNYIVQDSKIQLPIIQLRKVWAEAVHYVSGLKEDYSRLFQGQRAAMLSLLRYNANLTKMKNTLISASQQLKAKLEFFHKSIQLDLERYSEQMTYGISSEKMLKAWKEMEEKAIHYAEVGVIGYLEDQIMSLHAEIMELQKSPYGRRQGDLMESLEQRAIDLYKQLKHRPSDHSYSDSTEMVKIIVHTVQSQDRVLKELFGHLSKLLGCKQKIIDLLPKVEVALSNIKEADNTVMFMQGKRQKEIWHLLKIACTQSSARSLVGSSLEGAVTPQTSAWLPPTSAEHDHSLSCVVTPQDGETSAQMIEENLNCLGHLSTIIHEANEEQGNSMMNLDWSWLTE

[6] = molecular target: Insulin receptor-related protein (Homo sapiens) (UniProt P14616); test: IRR(h) Eurofins kinase panel; settings: Compound concentration 1.0 uM
[7] = molecular target: Mitogen-activated protein kinase kinase kinase kinase 5 (Homo sapiens) (UniProt Q9Y4K4); test: MAP4K5(h) Eurofins kinase panel; settings: Compound concentration 1.0 uM
[8] = molecular target: MAP kinase-interacting serine/threonine-protein kinase 2 (Homo sapiens) (UniProt Q9HBH9); test: Mnk2(h) Eurofins kinase panel; settings: Compound concentration 1.0 uM
[9] = molecular target: Eukaryotic translation initiation factor 2-alpha kinase 3 (Homo sapiens) (UniProt Q9NZJ5); test: PEK(h) Eurofins kinase panel; settings: Compound concentration 1.0 uM
[10] = molecular target: Serine/threonine-protein kinase PRP4 homolog (Homo sapiens) (UniProt Q13523); test: PRP4(h) Eurofins kinase panel; settings: Compound concentration 1.0 uM
[11] = molecular target: Testis-specific serine/threonine-protein kinase 4 (Homo sapiens) (UniProt Q6SA08); test: TSSK4(h) Eurofins kinase panel; settings: Compound concentration 1.0 uM
[12] = molecular target: ATR/ATRIP (Homo sapiens) (UniProt Q13535+Q8WXE1); test: ATR/ATRIP(h) Eurofins kinase panel; type: protein-complex assay; settings: Compound concentration 1.0 uM
[13] = system: L-363; test: L-363 cell line Proliferation assay; type: functional, Homo sapiens; settings: time 3 day
[14] = molecular target: Beta-2 adrenergic receptor (Homo sapiens) (UniProt P07550); settings: Compound concentration 10.0 uM
Chain of Beta-2 adrenergic receptor (Homo sapiens) (P07550 whole entry, looked up): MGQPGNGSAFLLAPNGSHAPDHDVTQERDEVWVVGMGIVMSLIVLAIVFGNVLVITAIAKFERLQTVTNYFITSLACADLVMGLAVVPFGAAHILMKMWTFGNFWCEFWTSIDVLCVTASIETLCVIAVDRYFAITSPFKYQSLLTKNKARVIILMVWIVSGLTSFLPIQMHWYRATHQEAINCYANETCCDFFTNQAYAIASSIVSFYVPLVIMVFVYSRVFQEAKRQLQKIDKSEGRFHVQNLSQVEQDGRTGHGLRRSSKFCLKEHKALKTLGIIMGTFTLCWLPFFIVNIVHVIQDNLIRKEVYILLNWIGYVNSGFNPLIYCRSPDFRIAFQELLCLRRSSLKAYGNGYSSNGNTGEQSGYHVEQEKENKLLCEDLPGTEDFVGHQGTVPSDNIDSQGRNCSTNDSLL

Chain of Insulin receptor-related protein (Homo sapiens) (P14616 27-742 limits assumed): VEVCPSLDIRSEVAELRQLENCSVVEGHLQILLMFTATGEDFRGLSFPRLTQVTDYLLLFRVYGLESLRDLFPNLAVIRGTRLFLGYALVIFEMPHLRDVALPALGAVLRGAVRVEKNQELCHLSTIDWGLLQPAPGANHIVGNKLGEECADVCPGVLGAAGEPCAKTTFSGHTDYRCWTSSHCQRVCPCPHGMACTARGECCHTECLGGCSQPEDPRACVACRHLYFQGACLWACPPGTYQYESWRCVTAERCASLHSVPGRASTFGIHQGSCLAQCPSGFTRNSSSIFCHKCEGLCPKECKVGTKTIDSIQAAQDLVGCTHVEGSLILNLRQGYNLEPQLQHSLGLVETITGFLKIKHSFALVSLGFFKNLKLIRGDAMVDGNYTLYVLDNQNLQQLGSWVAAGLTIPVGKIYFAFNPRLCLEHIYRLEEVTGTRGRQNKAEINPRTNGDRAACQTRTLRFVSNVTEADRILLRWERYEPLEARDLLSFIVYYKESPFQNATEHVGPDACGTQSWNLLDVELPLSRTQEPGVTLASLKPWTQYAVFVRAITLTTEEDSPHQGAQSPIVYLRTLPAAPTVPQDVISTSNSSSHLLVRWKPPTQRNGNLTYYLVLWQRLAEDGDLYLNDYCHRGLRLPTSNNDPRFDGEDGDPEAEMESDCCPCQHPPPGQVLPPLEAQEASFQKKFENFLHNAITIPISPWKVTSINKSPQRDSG
Chain of Insulin receptor-related protein (Homo sapiens) (P14616 747-1297 limits assumed): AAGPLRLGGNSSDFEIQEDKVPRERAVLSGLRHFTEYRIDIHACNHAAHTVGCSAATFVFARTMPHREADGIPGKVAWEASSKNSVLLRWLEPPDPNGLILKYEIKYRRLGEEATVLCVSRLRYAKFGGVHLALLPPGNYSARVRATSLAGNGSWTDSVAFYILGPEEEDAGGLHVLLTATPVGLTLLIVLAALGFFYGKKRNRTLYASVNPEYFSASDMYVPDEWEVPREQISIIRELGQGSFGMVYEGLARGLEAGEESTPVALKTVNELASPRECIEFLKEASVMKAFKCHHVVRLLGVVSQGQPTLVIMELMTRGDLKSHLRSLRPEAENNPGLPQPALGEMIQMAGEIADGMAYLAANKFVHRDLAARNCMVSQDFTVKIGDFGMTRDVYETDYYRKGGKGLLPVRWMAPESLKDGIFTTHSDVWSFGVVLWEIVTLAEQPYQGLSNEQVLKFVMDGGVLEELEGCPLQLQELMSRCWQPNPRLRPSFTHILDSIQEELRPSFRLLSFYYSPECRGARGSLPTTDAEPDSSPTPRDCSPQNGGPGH
Chain of ATR/ATRIP (Homo sapiens) (Q13535 whole entry, looked up): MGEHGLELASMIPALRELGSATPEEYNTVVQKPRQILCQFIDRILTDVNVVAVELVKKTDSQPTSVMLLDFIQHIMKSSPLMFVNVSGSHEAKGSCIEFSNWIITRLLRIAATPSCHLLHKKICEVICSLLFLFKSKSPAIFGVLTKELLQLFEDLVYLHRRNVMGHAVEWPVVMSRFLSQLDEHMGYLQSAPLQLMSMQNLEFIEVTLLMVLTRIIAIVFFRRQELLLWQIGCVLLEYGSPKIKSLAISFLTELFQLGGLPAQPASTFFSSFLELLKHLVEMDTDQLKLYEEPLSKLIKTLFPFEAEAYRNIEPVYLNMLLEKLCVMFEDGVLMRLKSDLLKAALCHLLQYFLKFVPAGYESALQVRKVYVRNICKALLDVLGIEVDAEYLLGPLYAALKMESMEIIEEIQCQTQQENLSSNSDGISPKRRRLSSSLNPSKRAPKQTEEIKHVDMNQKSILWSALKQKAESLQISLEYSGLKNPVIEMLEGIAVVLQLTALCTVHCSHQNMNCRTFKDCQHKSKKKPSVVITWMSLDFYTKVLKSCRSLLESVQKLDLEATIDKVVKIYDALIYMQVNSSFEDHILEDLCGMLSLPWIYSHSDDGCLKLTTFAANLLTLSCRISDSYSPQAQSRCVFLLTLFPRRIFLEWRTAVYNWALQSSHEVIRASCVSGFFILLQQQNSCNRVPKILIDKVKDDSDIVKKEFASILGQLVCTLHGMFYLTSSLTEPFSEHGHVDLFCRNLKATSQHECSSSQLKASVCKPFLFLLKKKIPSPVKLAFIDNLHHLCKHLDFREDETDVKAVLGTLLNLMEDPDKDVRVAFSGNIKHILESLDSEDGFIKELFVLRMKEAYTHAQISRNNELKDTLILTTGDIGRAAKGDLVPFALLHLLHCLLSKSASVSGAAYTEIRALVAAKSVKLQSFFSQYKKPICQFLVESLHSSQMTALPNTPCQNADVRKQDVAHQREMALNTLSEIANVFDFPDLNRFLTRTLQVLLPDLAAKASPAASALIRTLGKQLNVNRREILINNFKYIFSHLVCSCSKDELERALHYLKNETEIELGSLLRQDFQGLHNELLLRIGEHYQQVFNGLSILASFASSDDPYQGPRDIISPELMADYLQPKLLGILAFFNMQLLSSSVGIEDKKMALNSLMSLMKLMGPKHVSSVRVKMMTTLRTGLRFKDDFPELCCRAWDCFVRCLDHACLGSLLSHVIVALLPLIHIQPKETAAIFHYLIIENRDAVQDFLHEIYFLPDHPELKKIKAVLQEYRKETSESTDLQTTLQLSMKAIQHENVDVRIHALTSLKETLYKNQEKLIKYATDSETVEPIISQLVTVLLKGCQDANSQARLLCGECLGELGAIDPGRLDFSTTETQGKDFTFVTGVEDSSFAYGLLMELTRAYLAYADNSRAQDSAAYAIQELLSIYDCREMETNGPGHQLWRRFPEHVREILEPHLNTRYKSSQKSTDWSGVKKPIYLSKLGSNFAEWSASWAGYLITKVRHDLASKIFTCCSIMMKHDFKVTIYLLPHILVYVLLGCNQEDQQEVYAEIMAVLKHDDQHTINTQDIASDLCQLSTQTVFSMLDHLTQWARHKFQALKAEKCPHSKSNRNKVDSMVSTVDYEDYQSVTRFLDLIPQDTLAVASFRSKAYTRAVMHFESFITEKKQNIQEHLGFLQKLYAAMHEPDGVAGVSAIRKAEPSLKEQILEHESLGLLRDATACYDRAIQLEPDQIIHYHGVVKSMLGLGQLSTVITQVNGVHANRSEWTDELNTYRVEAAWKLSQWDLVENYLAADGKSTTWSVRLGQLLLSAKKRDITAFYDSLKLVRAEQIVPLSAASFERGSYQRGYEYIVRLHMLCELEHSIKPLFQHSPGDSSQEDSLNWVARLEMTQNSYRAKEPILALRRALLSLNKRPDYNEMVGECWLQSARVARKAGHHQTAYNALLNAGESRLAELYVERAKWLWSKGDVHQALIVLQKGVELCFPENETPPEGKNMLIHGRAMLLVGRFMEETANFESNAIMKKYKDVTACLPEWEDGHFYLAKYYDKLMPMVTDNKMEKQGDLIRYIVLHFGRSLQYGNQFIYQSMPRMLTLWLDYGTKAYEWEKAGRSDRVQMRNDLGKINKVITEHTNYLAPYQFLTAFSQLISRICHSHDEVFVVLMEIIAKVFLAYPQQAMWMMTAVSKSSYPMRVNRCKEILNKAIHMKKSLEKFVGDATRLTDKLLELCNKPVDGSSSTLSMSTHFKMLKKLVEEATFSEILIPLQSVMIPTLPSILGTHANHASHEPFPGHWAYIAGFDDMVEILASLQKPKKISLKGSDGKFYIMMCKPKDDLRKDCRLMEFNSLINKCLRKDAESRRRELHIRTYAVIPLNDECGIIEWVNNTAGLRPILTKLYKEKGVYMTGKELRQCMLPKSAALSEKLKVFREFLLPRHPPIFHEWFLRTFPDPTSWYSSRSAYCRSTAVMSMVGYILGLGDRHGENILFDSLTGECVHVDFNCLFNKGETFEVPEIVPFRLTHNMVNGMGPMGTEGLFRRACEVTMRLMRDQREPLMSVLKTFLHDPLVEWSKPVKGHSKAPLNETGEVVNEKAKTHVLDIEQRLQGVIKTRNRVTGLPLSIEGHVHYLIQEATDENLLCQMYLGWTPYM
Chain of ATR/ATRIP (Homo sapiens) (Q8WXE1 whole entry, looked up): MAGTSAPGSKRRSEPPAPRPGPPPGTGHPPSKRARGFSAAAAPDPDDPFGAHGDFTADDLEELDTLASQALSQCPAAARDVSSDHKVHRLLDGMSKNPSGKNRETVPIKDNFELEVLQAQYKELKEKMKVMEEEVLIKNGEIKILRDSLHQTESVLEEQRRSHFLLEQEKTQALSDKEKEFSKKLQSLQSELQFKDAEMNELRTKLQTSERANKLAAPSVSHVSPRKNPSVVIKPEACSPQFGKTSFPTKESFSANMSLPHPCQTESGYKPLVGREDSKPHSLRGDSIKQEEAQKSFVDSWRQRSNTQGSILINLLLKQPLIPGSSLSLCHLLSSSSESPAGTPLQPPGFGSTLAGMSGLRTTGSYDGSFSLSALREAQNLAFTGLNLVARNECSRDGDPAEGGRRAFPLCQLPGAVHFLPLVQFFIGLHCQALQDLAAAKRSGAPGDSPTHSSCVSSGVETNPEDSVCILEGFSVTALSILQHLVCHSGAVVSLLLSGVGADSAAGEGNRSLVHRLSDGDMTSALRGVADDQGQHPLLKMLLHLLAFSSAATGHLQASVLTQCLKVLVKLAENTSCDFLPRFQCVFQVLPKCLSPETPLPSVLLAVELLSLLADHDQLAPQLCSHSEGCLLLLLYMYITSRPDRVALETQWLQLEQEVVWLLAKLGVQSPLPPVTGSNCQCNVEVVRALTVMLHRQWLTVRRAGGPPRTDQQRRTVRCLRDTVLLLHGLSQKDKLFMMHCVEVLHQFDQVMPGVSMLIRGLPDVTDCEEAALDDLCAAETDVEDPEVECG

SMILES | % residual kinase activity [1] [%] | % residual kinase activity [2] [%] | % residual kinase activity [3] [%] | % residual kinase activity [4] [%] | % residual kinase activity [5] [%] | % residual kinase activity [6] [%] | % residual kinase activity [7] [%] | % residual kinase activity [8] [%] | % residual kinase activity [9] [%] | % residual kinase activity [10] [%] | % residual kinase activity [11] [%] | % residual kinase activity [12] [%] | Cell Proliferation IC50 [13] [µM] | inhibition [14] [%]
CCc1ccccc1C(=O)Nc1n[nH]c2c(C)c(F)c(C3C(C#N)=C(C)N(C)C(C)=C3C#N)cc12 [BAY-3827] | 100 | 100 | 102 | 102 | 107 | 101 | 95 | 110 | 101 | 96 | 103 | 94 | 10.8 | 
CC1=C(C#N)C(c2ccc3c(c2)c(NC(=O)c2ccccc2C)nn3C)C(C#N)=C(C)N1 [BAY-974] |  |  |  |  |  |  |  |  |  |  |  |  |  | -7.25
